Reference: patent US20050260126A1 (priority 2002, published 2005)
Counter-ions that a name gives are not always drawn.

Assays:
[1] = in vivo; conditions: male, Crj:CD1, mouse, iv
[2] = Slc:ICR, mouse, not told, iv
[3] = system: abnormal prion proteins in ScN2a cells with persistent infection of scrapie; assay: cells; type: cell-based, mouse; conditions: for IC50: Mus musculus, ScN2a, 96 h, read-out: Inhibitory effects on producing abnormal prion protein IC50; for Inhibitory effects on producing abnormal prion proteins (in words): ScN2a cells
[4] = system: ScN2a cells; conditions: for Concentration of inhibiting cell proliferation TC: mouse

Row | Structure (SMILES) | MTD [1] [mg/kg] | Permeability into the brain: content in Brain [2] | Permeability into the brain: content in Plasma [2] | IC50 [3] [nM] | Concentration of inhibiting cell proliferation TC [4] [µM] | Inhibitory effects on producing abnormal prion proteins (in words) [3] | TC and safety concentration margin (in words) [4]
1 | CN(C)c1ncc(/C=C/c2ccc3ccccc3n2)s1 [BF-222, 2-[2-(2-dimethylthiazol-5-yl)ethenyl]quinoline] | ≥ 10 | 13.0 % ID/g or ml | 2.0 % ID/g or ml | 8 | >10 | – | –
2 | CNc1ccc(/C=C/c2ccc3ccccc3n2)cc1 [BF-178, 2-[2-(4-methylaminophenyl)ethenyl]quinoline] | ≥ 10 | 6.3 % ID/g or ml | 4.5 % ID/g or ml | 1000 | 100 | – | –
3 | Nc1ccc(/C=C/c2ccc3ccccc3n2)cc1 [BF-177, 2-[2-(4-aminophenyl)ethenyl]quinoline] | ≥ 10 | 8.2 % ID/g or ml | 1.6 % ID/g or ml | – | – | – | –
4 | CN(C)c1ccc(/C=C/c2nc3ccccc3o2)c(O)c1 [BF-206, 2-(4-dimethylamino-2-hydroxystyryl)-benzoxazole] | ≥ 10 | – | – | 2 | >10 | – | –
5 | Cc1nc(/C=C/c2cnc(N(C)C)s2)oc1C [BF-214, 2-(dimethylamino)-5-[2-(4,5-dimethyloxazol-2-yl)ethenyl]thiazole] | ≥ 10 | 9.0 % ID/g or ml | 2.1 % ID/g or ml | – | – | – | –
6 | CNc1ccc(C=Cc2ccc3ccccc3n2)c(O)c1 [BF-198, 2-[2-(2-hydroxyl-4-methylaminophenyl)-ethenyl]quinoline] | ≥ 10 | 9.9 % ID/g or ml | 4.7 % ID/g or ml | 0.8 | 10 | – | –
7 | CNc1ccc(/C=C/c2nc3ccccc3o2)c(N)c1 [BF-207, 2-(2-amino-4-N-methyl-aminostyryl)benzoxazole] | ≥ 10 | – | – | – | – | – | –
8 | CNc1ccc(C=Cc2ccc3cc(I)ccc3n2)c(O)c1 [BF-199, 2-[2-(2-hydroxyl-4-methylaminophenyl)-ethenyl]-6-iodoquinoline] | ≥ 10 | – | – | 0.8 | >10 | – | –
9 | CN(C)c1ccc(/C=C/c2ccc3ccccc3n2)c(O)c1 [BF-193, 2-[2-(2-hydroxy-4-dimethylaminophenyl)ethenyl]quinoline] | ≥ 10 | 5.2 % ID/g or ml | 2.7 % ID/g or ml | 1.6 | 10 | – | –
10 | c1ccc2cc(-c3cn4ccccc4n3)ccc2c1 [Compound N-437, 2-(2-naphthyl)imidazo-[1,2-a]pyridine hydrobromide] | ≥ 10 | – | – | 1 | 100 | – | –
11 | CNc1ccc(/C=C/C=C/c2nc3ccccc3[nH]2)cc1 [BF-188, 2-[[4-(4-methylamino)-phenyl]-1,3-butadienyl]-benzimidazole] | ≥ 10 | 4.8 % ID/g or ml | 1.7 % ID/g or ml | – | – | – | –
12 | Fc1ccc(/C=C/c2nc3ccccc3s2)cc1 [Compound N-453, 2-[2-(4-fluorophenyl)ethenyl]benzothiazole] | ≥ 10 | 5.0 % ID/g or ml | 1.4 % ID/g or ml | 1 | 100 | highly inhibitory effects | higher TCs, therefore higher safety concentration margins
13 | CNc1ccc(/C=C/c2nc3cc(I)ccc3o2)cc1 [BF-180, 2-(4-methylamino)-styryl-5-iodobenzoxazole] | ≥ 10 | 2.4 % ID/g or ml | 1.2 % ID/g or ml | 10 | 100 | – | –
14 | Fc1ccc(/C=C/c2nc3ccccc3o2)cc1 [BF-208, 2-[2-(4-fluorophenyl)ethenyl]benzoxazole] | ≥ 10 | 11.0 % ID/g or ml | 0.53 % ID/g or ml | 0.8 | >10 | – | –
15 | Cc1nc(/C=C/c2ccc(N(C)C)cc2O)oc1CO [BF-200, 2-[2-[(4-dimethylamino-2-hydroxy)phenyl]-ethenyl]-5-hydroxy methyl-4-methyloxazole] | ≥ 10 | – | – | – | – | – | –
16 | CC1=NN(c2ccc(/C=C/c3nc4ccccc4o3)cc2)C(=O)C1 [BF-181, 2-[2-[4-(3-methyl-5-oxo-2-pyrrozolin-1-yl)-phenyl]ethenyl]benzoxazole] | 3 to 10 | – | – | – | – | – | –
17 | Cc1nc(/C=C/c2ccc(N(C)C)cc2)oc1C [BF-137, 2-[2-(4-dimethylamino-phenyl)ethenyl]-4-5-dimethyloxazole] | ≥ 10 | 6.5 % ID/g or ml | 2.9 % ID/g or ml | 100 | 100 | – | –
18 | CNc1ccc(C=Cc2ccc3ccccc3n2)c(CF)c1 [BF-195, 2-[2-(2-fluoromethyl-4-methylaminophenyl)-ethenyl]quinoline] | ≥ 10 | 4.8 % ID/g or ml | 1.2 % ID/g or ml | 32 | 10 | – | –

Row | Structure (SMILES) | MTD [1] [mg/kg] | Permeability into the brain: content in Brain [2] | Permeability into the brain: content in Plasma [2] | IC50 [3] [nM] | Concentration of inhibiting cell proliferation TC [4] [µM] | Inhibitory effects on producing abnormal prion proteins (in words) [3] | TC and safety concentration margin (in words) [4]
19 | Nc1ccc(-c2ccc3cc(CF)ccc3n2)c(O)c1 [BF-213, 2-[(4-amino-2-hydroxy)-phenyl]-6-(fluoro-methyl)quinoline] | ≥ 10 | – | – | 2 | 10 | – | –
20 | Nc1ccc(/C=C/c2nc3cc(F)ccc3o2)cc1 [BF-140, 2-(4-amino)styryl-5-fluorobenzoxazole] | ≥ 10 | 5.5 % ID/g or ml | 1.1 % ID/g or ml | 5 | 50 | – | –
21 | Cc1nc(/C=C/c2ccc(N(C)C)cc2O)oc1COCCF [BF-210] | ≥ 10 | – | – | – | – | – | –
22 | CN(C)c1ccc(/C=C/c2cccs2)cc1 [BF-141, 2-[2-(4-dimethylamino-phenyl)ethenyl]thiophene] | 3 to 10 | – | – | 1 | 10 | highly inhibitory effects | –
23 | CNc1ccc(/C=C/C=C/c2nc3ccccc3o2)cc1 [BF-185, 2-[[4-(4-methylamino)-phenyl]-1,3-butadienyl]-benzoxazole] | ≥ 10 | 3.9 % ID/g or ml | 1.0 % ID/g or ml | – | – | – | –
24 | Cc1nc(/C=C/C=C/c2ccc(N(C)C)cc2)oc1C [BF-228, 2-[[4-(4-dimethylamino)-phenyl]-1,3-butadienyl]-3,4-dimethyloazole] | ≥ 10 | – | – | 16 | >10 | – | –
25 | CN(C)c1ncc(/C=C/c2nc3ccccc3o2)o1 [BF-230, 2-[2-(2-dimethylamino-oxazol-5yl)-ethenyl]benzoxazole] | ≥ 10 | – | – | – | – | – | –
26 | CN(C)c1cnc(/C=C/c2nc3ccccc3o2)o1 [BF-215, 2-[2-(5-dimethylamino-oxazol-2-yl)-ethenyl]-benzoxazole] | ≥ 10 | 8.8 % ID/g or ml | 2.5 % ID/g or ml | – | – | – | –
27 | C(=C\c1nc2ccccc2[nH]1)/c1ccccc1 [Compound N-491, 2-styrylbenzimidazole] | ≥ 10 | 7.4 % ID/g or ml | 2.3 % ID/g or ml | 10 | 100 | – | –
28 | Nc1ccc(/C=C/c2nc3cc(I)ccc3o2)cc1 [BF-173, 2-(4-amino)styryl-5-iodobenzoxazole] | ≥ 10 | – | – | 100 | 100 | – | –
29 | CNc1ccc(/C=C/C=C/C=C/c2ccc3ccccc3n2)cc1 [BF-189, 1-(4-methylamino-phenyl)-6-(2-quinolyl)-1,3,5-hexatriene] | ≥ 10 | – | – | 100 | 100 | – | –
30 | CN(C)c1ccc2cc(-c3nc4cc(F)ccc4[nH]3)ccc2c1 [BF-153, 5-fluoro-2-(6-dimethyl-aminonaphthalen-2-yl)benzimidazole] | 3 to 10 | – | – | 1 | 10 | highly inhibitory effects | –
31 | CN(C)c1ncc(/C=C/C=C/c2nc3ccccc3[nH]2)s1 [BF-231, 2-[4-(2-dimethylamino-thiazol-5-yl)-1,3-butadienyl]benzimidazole] | ≥ 10 | – | – | 1.6 | >10 | – | –
32 | CN(C)c1ccc(-c2nc3ccccc3s2)cc1 [BF-150, 2-(4-dimethylamino-phenyl) benzothiazole] | – | 11.2 % ID/g or ml | 1.5 % ID/g or ml | 1 | 10 | highly inhibitory effects | –
33 | CN(C)c1ncc(/C=C/c2nc3ccccc3s2)s1 [BF-196, 2-[2-(2-dimethylamino-thiazol-5-yl)ethenyl]-benzothiazole] | – | 19 % ID/g or ml | 1.8 % ID/g or ml | 16 | >10 | – | –
34 | CN(C)c1ncc(-c2nc3ccccc3o2)s1 [BF-225, 2-(2-dimethylamino-thiazol-5-yl)benzoxazole] | ≥ 10 | – | – | – | – | – | –
35 | CNc1ccc(-c2ccc3ccccc3n2)cc1 [BF-158, 2-[(4-methylamino)-phenyl]quinoline] | – | 9.7 % ID/g or ml | 1.8 % ID/g or ml | 10 | 100 | – | –
